Drawing on ChEMBL document CHEMBL1201862, “PubChem BioAssay data set” (2004), this text covers EC50, IC50 and AC50 for 8 compounds.

Molecules are shown by their SMILES. Active and inactive are the calls of the source.

In assay [1] the target is Troponin, cardiac muscle (Homo sapiens, UniProt P19429+P45379+P63316). As to the kind of experiment: Fluorescence-based biochemical high throughput dose response assay for activators of the calcium sensitivity of cardiac Regulated Thin Filaments (RTF). [Related pubchem assays (depositor defined):AID493008, AID493018, AID504382, AID504383]. It counts as protein-complex assay.

In assay [2] the test system is H9c2. As to the kind of experiment: cells. It counts as functional, cell-based. To be noted: Rattus norvegicus, H9c2, Myocardium.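 Also: confirmatory concentration-response retest of ultra-high-throughput screening hits for modulation of myocardial damage; cell death induced by hydrogen peroxide oxidative stress; compound pretreatment for 60 min then peroxide exposure for 2 h; potency is for protecting the cells against peroxide damage rather than for killing them.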
Assay [3] concerns the target T1, Heat shock factor protein 1 (Mus musculus, UniProt P38532).
T1 sequence (P38532 whole entry): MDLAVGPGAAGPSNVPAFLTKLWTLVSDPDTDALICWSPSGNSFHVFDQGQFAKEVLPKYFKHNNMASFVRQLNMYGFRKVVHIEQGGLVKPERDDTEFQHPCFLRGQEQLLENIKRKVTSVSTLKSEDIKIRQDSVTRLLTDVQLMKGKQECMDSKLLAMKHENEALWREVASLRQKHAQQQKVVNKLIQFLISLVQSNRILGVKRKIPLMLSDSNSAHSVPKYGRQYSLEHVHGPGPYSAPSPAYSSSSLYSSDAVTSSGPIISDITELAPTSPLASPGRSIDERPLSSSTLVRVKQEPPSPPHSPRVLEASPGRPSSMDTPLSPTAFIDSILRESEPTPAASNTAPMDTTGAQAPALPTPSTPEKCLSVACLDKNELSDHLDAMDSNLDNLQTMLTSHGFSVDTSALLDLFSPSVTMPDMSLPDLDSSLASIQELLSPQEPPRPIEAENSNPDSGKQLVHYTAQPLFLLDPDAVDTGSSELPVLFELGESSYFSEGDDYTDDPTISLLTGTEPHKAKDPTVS
As to the kind of experiment: inhibition of MG132-induced HSE-luciferase signal, confirmation, cell-based, NIH3T3, luminescence, dose retest (AID 2382).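 Also: NIH3T3 fibroblasts with HSF1-driven luciferase reporter stressed by proteasome inhibitor MG132; luminescence from HSF1-driven luciferase expression after 8 hours of MG132 stress.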 It is filed as functional.

A short description of assay [4]: Counterscreen for AddAB inhibitors: absorbance-based bacterial cell-based high throughput dose response assay for inhibitors of bacterial viability. [Related pubchem assays (depositor defined):AID435030, AID449728, AID449731, AID488942, AID488955, AID488956]. It counts as functional. On the technique in general: The purpose of a counterscreen is to sort out artefacts and off-target activity.

Assay [5] deals with T2, Exodeoxyribonuclease V (Escherichia coli (strain K12), UniProt P04993+P07648+P08394).
T2 sequence (P04993 whole entry): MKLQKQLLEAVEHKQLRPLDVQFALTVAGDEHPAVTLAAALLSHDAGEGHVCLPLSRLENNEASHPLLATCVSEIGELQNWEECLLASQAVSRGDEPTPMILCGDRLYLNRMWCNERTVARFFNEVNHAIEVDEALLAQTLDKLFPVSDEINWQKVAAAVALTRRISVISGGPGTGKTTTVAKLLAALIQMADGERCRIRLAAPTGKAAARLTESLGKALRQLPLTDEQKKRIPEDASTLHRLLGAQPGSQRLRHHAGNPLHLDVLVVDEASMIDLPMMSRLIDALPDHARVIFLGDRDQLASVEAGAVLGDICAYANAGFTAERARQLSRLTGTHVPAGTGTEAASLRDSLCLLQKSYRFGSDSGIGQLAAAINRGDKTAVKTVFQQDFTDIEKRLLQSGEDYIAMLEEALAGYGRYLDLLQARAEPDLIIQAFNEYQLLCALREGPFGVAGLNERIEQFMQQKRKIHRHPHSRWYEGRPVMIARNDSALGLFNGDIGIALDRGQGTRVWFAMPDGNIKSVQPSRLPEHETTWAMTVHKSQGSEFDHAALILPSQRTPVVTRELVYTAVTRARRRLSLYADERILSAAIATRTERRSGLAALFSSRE
T2 sequence (P07648 whole entry): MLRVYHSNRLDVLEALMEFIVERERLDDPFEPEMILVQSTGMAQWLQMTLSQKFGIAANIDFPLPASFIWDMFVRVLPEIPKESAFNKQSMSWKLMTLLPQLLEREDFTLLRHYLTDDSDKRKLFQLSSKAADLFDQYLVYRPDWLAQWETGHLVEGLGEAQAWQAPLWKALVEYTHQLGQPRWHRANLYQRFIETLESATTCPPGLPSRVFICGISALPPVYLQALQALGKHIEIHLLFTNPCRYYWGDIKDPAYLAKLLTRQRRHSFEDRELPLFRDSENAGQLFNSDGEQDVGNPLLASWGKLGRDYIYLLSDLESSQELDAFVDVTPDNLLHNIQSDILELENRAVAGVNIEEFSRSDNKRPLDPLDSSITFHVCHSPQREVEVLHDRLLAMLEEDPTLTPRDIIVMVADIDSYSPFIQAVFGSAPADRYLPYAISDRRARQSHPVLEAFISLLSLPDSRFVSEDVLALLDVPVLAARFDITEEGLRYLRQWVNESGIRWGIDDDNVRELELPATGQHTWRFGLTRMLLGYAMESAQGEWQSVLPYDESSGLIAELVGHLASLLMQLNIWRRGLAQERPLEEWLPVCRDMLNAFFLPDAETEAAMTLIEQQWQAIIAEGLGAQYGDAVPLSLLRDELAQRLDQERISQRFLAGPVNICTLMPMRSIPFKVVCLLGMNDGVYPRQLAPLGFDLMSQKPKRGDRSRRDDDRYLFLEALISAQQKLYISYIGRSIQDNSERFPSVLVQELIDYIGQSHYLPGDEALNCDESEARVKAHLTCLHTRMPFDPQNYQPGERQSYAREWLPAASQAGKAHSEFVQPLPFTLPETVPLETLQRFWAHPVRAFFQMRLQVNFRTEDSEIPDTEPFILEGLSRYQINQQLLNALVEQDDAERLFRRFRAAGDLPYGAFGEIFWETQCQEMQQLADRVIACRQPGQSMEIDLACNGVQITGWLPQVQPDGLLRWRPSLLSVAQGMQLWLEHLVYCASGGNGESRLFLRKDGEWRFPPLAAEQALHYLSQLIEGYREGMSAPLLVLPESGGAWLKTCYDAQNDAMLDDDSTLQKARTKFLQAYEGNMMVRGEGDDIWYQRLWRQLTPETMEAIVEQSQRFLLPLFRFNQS
T2 sequence (P08394 whole entry): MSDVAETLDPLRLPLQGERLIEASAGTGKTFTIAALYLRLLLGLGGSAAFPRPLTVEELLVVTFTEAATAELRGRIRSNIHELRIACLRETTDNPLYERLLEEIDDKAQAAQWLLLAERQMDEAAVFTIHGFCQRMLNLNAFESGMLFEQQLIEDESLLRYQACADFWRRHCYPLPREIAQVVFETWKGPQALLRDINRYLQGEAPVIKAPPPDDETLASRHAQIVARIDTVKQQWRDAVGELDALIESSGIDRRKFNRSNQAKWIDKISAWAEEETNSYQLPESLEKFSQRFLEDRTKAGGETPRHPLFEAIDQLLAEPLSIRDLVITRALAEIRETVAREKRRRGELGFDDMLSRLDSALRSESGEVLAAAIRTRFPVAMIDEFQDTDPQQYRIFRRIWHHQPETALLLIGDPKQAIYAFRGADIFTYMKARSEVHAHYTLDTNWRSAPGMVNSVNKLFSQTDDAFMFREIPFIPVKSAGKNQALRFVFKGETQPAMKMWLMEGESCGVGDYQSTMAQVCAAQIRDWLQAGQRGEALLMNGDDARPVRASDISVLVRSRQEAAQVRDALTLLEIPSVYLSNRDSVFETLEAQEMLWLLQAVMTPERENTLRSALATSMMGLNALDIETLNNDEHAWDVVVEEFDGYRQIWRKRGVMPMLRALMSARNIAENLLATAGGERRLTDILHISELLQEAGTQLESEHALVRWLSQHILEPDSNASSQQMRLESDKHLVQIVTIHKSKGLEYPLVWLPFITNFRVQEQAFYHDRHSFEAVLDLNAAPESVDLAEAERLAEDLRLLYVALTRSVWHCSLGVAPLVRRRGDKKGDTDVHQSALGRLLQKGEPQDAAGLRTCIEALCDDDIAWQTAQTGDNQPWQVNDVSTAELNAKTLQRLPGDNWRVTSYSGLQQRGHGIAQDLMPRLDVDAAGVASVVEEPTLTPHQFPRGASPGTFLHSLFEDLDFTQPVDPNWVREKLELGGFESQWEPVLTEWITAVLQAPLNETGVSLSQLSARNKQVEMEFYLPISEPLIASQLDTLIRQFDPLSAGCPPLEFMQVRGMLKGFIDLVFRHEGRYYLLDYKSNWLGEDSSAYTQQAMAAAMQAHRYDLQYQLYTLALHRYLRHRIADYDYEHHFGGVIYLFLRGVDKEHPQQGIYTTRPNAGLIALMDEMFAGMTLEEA
As to the kind of experiment: E. coli RecBCD inhibitors, dose response, counter-screen for AddAB inhibitor project, absorbance, V66 E. coli, mutant T4 phage (AID 492957). It counts as functional, cell-based, Escherichia coli str. K-12 substr. MG1655.

Assay [6] deals with T3, Coagulation factor XII (Homo sapiens, UniProt P00748).
T3 sequence (P00748 whole entry): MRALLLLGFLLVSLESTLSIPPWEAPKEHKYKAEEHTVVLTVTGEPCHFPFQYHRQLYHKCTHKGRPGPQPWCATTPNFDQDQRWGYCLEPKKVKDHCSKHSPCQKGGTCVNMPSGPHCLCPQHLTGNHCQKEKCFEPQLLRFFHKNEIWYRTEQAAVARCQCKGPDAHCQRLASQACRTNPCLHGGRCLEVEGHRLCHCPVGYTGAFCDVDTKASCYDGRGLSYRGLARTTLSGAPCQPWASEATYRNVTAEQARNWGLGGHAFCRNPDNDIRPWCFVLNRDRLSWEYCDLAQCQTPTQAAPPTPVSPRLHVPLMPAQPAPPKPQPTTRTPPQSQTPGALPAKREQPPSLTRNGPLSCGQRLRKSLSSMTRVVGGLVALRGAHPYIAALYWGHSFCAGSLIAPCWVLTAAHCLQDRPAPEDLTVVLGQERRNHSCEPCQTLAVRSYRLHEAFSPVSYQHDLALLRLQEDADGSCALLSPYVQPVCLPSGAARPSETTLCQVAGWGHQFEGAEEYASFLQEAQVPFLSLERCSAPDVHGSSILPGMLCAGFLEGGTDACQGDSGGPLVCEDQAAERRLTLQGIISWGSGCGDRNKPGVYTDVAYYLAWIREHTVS
It is filed as functional.

Assay [7] addresses T4, Calpain-2 catalytic subunit (Sus scrofa, UniProt P43367).
T4 sequence (P43367 whole entry): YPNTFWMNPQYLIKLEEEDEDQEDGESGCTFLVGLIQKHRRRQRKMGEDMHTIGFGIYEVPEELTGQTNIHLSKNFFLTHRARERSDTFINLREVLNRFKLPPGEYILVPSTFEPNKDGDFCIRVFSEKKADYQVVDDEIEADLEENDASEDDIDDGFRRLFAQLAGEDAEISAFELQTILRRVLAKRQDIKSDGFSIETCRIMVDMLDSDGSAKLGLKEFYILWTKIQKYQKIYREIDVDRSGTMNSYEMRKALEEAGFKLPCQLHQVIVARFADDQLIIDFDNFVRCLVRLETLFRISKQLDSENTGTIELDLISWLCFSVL
As to the kind of experiment: pig calpain II inhibitor potency, dose response, biochemical, fluorogenic peptide substrate (AID 1420). It counts as functional.

The nature of assay [8]: control 3'UTR Renilla luciferase suppression, dose response, counter-screen for Shn3 inhibitor project, cell-based, Clone20-Shn3RL, cherry-picked (AID 624133). It is filed as functional.
Assay [9] is described as follows: HepG2 cell cytotoxicity, dose response, cytotoxicity control for Shn3 inhibitor project, CellTiter-Glo, cherry-picked (AID 624134). It counts as functional, cell-based. In general terms: ATP-based viability assays read luminescence as a measure of living cells.
Assay [10] in a line: Shn3 3'UTR reporter inhibitors, dose response, cell-based, Clone20 osteoblasts, firefly luciferase, cherry-picked (AID 624132).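 Also: firefly luciferase luminescence from reporter carrying the Shn3 3'UTR in osteoblasts.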 It is filed as functional.
The target in assay [11] is T5, DNA repair protein RAD52 homolog (Homo sapiens, UniProt P43351).
T5 sequence (P43351 whole entry): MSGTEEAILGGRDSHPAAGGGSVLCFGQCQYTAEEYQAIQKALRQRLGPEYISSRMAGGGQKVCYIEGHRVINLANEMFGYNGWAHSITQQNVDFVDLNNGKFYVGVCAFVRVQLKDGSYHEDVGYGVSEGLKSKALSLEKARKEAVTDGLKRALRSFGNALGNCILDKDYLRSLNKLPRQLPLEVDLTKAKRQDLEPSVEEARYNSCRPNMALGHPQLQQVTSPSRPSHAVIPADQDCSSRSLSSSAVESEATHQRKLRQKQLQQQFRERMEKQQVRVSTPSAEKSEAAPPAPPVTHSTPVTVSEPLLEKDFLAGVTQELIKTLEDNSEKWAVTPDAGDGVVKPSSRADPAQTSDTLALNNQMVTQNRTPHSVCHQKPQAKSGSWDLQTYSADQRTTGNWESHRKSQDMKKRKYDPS
It counts as functional, biochemical.

Assay [12] concerns HEK293. The assay is described as follows: cells. The settings on record: Homo sapiens.
Assay [13] concerns HEK293. As to the kind of experiment: cells. To be noted: Homo sapiens. The source holds these as a separate data set.

By EC50 is commonly meant the concentration needed to bring the measured effect to its halfway point. Usually IC50 stands for the concentration that inhibits the measured activity by half. On to `S=C(Nc1ccc(N2CCOCC2)cc1)Nc1ccc2nc(-c3ccco3)c(-c3ccco3)nc2c1`, for which the EC50 in assay [1] was 2.92 µM (active). Besides, the IC50 in [2] is > 79 µM (inactive).
On to `COc1ccc(CNC(=O)c2sc(=S)n(-c3ccccc3)c2N)cc1`, for which the figures for the EC50 in assay [3] and in assay [1] were > 195 µM (not active) and > 71.5 µM (inactive), respectively.
With `CC(=O)c1ccc(NC(S)=NC(NC(=O)c2ccco2)C(Cl)(Cl)Cl)cc1` (stereo not drawn), the IC50 in assay [4] and in [5] was > 119 µM (inactive) each time.
As to `Cc1ccc(C(=O)Nc2ccc3c(c2)ncn3C)cc1`, the EC50 in assay [1] was > 71.4 µM (inactive).
`CC1Cc2ccccc2N1S(=O)(=O)c1cccc2nsnc12` (stereo not drawn): the IC50 in assay [6] was > 50 µM (inactive).
As for `O=C(c1ccc(N2CCCC2=O)cc1)N1CCCCCC1`, the IC50 in assay [6] was > 50 µM (inactive); in [7], 6.62 µM (not active).
As usually defined, the AC50 is the concentration at which the activity in the assay is half-maximal. For the compound `CN(C)CCNC(=O)c1cccc2nc3cccc(F)c3nc12`, the AC50 in [8] was 23.8 µM (active); in assay [9] it was 4.69 µM (active); in [10] it was 13.7 µM (active); in assay [11], 4.63 µM (active). In addition, the EC50 in assay [12] and in assay [13] was > 59.6 µM (inactive) throughout.
For the compound `CCN(CC)S(=O)(=O)c1cc(NC(=O)CSCc2c(C)noc2C)ccc1C`, the EC50 in assay [12] and in [13] was > 59.6 µM (inactive) each time.
